Results from US20180243298A1, “TRPV3 MODULATORS” (AbbVie Inc., priority 2015, published 2018).
Read-outs that look alike come from different tables or passages of the source.

Key:
human TRPV3 = target: T1, human TRPV3 (Homo sapiens, UniProt Q8NET8); test: Calcium flux assay (FLIPR TETRA), recombinant HEK293 cells expressing TRPV3, 2-APB response; type: cell-based; details: 2-APB at its EC80
T1 construct: expressed in transfected cells; host or cells: HEK293
T1 sequence (Q8NET8 1-790): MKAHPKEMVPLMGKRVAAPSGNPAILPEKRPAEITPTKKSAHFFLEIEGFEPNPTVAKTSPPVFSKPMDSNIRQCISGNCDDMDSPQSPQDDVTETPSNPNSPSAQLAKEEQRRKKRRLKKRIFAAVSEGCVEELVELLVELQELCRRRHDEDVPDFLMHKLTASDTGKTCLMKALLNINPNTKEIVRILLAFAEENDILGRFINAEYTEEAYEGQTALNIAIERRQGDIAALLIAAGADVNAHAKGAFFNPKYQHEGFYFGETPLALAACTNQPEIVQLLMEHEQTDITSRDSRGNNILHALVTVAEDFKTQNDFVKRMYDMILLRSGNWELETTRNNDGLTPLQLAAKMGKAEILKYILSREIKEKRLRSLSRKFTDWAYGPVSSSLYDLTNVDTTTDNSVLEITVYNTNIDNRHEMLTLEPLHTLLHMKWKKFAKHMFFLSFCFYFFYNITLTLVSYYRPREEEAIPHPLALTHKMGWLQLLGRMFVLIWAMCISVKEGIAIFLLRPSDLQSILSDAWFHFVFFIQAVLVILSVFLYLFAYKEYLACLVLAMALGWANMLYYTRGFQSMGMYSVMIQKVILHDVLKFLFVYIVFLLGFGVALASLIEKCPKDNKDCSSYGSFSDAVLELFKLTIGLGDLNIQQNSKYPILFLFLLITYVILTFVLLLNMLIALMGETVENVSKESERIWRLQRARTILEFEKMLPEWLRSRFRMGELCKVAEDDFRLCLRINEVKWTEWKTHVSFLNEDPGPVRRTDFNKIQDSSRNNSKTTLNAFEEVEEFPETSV
In short: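 Response is the peak fluorescence increase over baseline, as a percentage of the compound-free response to 2-APB at EC80. Calcium flux recorded on FLIPR TETRA in stable human or mouse TRPV3 HEK293 cells after 90–120 min Calcium-4 dye loading.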

FITC-challenged mice = test: Contact hypersensitivity (CHS) to FITC, ear swelling in mice; type: in vivo, mice (BALB/c); details: Mus musculus, reduction in ear skin thickness vs vehicle, 24 hours after FITC challenge, read-out: FITC % effect
Procedure: (ii) In vivo Data The following protocol was used to evaluate the efficacy of a compound against contact hypersensitivity:
Young adult female BALB/c mice (18±2 g body weight at 6-8 weeks old) Charles River Laboratories) were maintained under pathogen-free conditions and housed in an animal room maintained t at temperature of 21±1° C. and a humidity of 43±5%. Induction of contact hypersensitivity (CHS) and ear thickness measurements for all animals were carried out under light anesthesia (3-5% isoflurane/oxygen) for 1-2 minutes.
Contact hypersensitivity consists of the afferent or initiation sensitizing phase, and the efferent or elicitation phase. The latter phase occurs when epidermal cells encounter a particular antigen to which the epidermal cells have previously been exposed, and is characterized in rodents by localized swelling in the skin.
Fluorescein isothiocyanate (FITC) was purchased from Sigma-Aldrich and dissolved in 1:1 in acetone/dibutylphthalate prior to epicutaneous application. Mice were sensitized by painting epicutaneously 40 uL of 0.5% FITC on the abdomen ventral skin shaved one day prior to sensitization. Six days later, mice were challenged by painting epicutaneously 20 uL total volume of 0.5% FITC on the right ear (10 uL on either side). Control mice were treated with vehicle only. Ear swelling was measured 24 hours after challenge. Treatment groups were dosed orally at a dose volume of 10 mL/kg with compounds either BID (1 hour prior to FITC challenge, 8 hours after first dose and 2 hours prior to ear swelling measurement at 24 hours post FITC challenge) or QD (1 hour prior to FITC challenge and 2 hours prior to ear swelling measurement at 24 hours post FITC challenge). Inflammation was determined by the degree of ear swelling of the hapten exposed ear compared with the untreated ear with a Quick Mini thickness-gauge caliber (Mitutoyo, Japan). The change in ear thickness after allergen treatment can be used to calculate the percent suppression of contact hypersensitivity.
The level of compound-mediated suppression of ear skin thickness in FITC-challenged mice is indicated in Table 2 wherein “A” refers to a reduction in ear skin thickness of >50%, “B” refers to a reduction in ear skin thickness of 30-50% and “C” refers to a reduction in ear skin thickness of <30% relative to vehicle-treated animals.

Compound	IC50 (human TRPV3) [nM]	also measured
COc1ncnc(OC)c1C(=O)Nc1nc(C(F)(F)F)c(-c2cncc(F)c2)s1 [Example 27, N-[5-(5-fluoropyridin-3-yl)-4-(trifluoromethyl)-1,3-thiazol-2-yl]-4,6-dimethoxypyrimidine-5-carboxamide]	50 to 100	inhibition in vivo at 30 mg/kg (FITC-challenged mice; 30 mg/kg bid po): < 30%
COc1ncnc(OC)c1C(=O)Nc1nc(C(F)(F)F)c(-c2cccnc2C#N)s1 [Example 42, N-[5-(2-cyanopyridin-3-yl)-4-(trifluoromethyl)-1,3-thiazol-2-yl]-4,6-dimethoxypyrimidine-5-carboxamide]	< 50	inhibition in vivo at 30 mg/kg (FITC-challenged mice; 30 mg/kg bid po): < 30%
COc1ncnc(OC)c1C(=O)Nc1nc(C(F)(F)F)c(CN2CCC(OC)CC2)s1 [Example 48, 4,6-dimethoxy-N-{5-[(4-methoxypiperidin-1-yl)methyl]-4-(trifluoromethyl)-1,3-thiazol-2-yl}pyrimidine-5-carboxamide]	100 to 500	inhibition in vivo at 30 mg/kg (FITC-challenged mice; 30 mg/kg bid po): < 30%
COc1ncnc(OC)c1C(=O)Nc1nc(C(F)(F)F)c(CNCC(C)C)s1 [Example 52, 4,6-dimethoxy-N-[5-{[(2-methylpropyl)amino]methyl}-4-(trifluoromethyl)-1,3-thiazol-2-yl]pyrimidine-5-carboxamide]	50 to 100	inhibition in vivo at 10 mg/kg (FITC-challenged mice; 10 mg/kg qd po): 30 to 50%
COc1ncnc(OC)c1C(=O)N(COP(=O)(O)O)c1nc(-c2ccc(C(F)(F)F)cn2)cs1 [Example 74, ([(4,6-dimethoxypyrimidin-5-yl)carbonyl]{4-[5-(trifluoromethyl)pyridin-2-yl]-1,3-thiazol-2-yl}amino)methyl dihydrogen phosphate]	–	inhibition in vivo at 100 mg/kg (FITC-challenged mice; 100 mg/kg bid po): > 50%
COc1ncnc(OC)c1C(=O)Nc1nc(C(F)(F)F)c(-c2ccc(OCC(F)(F)F)nc2)s1 [Example 194, 4,6-dimethoxy-N-{5-[6-(2,2,2-trifluoroethoxy)pyridin-3-yl]-4-(trifluoromethyl)-1,3-thiazol-2-yl}pyrimidine-5-carboxamide]	100 to 500	–
COc1ncnc(OC)c1C(=O)Nc1nc(C(F)(F)F)c(-c2cccc(S(=O)(=O)N3CCOCC3)c2)s1 [Example 195, 4,6-dimethoxy-N-{5-[3-(morpholin-4-ylsulfonyl)phenyl]-4-(trifluoromethyl)-1,3-thiazol-2-yl}pyrimidine-5-carboxamide]	50 to 100	–
COCCN(C)S(=O)(=O)c1cccc(-c2sc(NC(=O)c3c(OC)ncnc3OC)nc2C(F)(F)F)c1 [Example 197, 4,6-dimethoxy-N-[5-{3-[(2-methoxyethyl)(methyl)sulfamoyl]phenyl}-4-(trifluoromethyl)-1,3-thiazol-2-yl]pyrimidine-5-carboxamide]	< 50	–
CCn1cc(-c2sc(NC(=O)c3c(OC)ncnc3OC)nc2C(F)(F)F)c(C)n1 [Example 200, N-[5-(1-ethyl-3-methyl-1H-pyrazol-4-yl)-4-(trifluoromethyl)-1,3-thiazol-2-yl]-4,6-dimethoxypyrimidine-5-carboxamide]	< 50	–
COc1ncnc(OC)c1C(=O)Nc1nc(C(F)(F)F)c(-c2cnc(N3CCOCC3)c(C#N)c2)s1 [Example 204, N-{5-[5-cyano-6-(morpholin-4-yl)pyridin-3-yl]-4-(trifluoromethyl)-1,3-thiazol-2-yl}-4,6-dimethoxypyrimidine-5-carboxamide]	< 50	–
COCc1sc(NC(=O)c2c(OC)ncnc2OC)nc1C(F)(F)F [Example 206, 4,6-dimethoxy-N-(5-(methoxymethyl)-4-(trifluoromethyl)thiazol-2-yl)pyrimidine-5-carboxamide]	100 to 500	–

Now from value to compound, other results behind:

IC50 (human TRPV3) [nM]	Compound	also measured
< 50	COc1ncnc(OC)c1C(=O)Nc1nc(C(F)(F)F)c(-c2cccc(C#N)n2)s1 [Example 31, N-[5-(6-cyanopyridin-2-yl)-4-(trifluoromethyl)-1,3-thiazol-2-yl]-4,6-dimethoxypyrimidine-5-carboxamide]	inhibition in vivo at 30 mg/kg (FITC-challenged mice; 30 mg/kg qd po): > 50%
50 to 100	COc1ncnc(OC)c1C(=O)Nc1nc(C(F)(F)F)c(-c2ccnc(C(C)(C)C#N)c2)s1 [Example 33, N-{5-[2-(2-cyanopropan-2-yl)pyridin-4-yl]-4-(trifluoromethyl)-1,3-thiazol-2-yl}-4,6-dimethoxypyrimidine-5-carboxamide]	inhibition in vivo at 30 mg/kg (FITC-challenged mice; 30 mg/kg qd po): > 50%
< 50	COc1ncnc(OC)c1C(=O)Nc1nc(C(F)(F)F)c(-c2cccc(C#N)c2)s1 [Example 40, N-[5-(3-cyanophenyl)-4-(trifluoromethyl)-1,3-thiazol-2-yl]-4,6-dimethoxypyrimidine-5-carboxamide]	inhibition in vivo at 30 mg/kg (FITC-challenged mice; 30 mg/kg bid po): < 30%
< 50	COc1ncnc(OC)c1C(=O)Nc1nc(C(F)(F)F)c(CN2CCC(F)CC2)s1 [Example 53, N-{5-[(4-fluoropiperidin-1-yl)methyl]-4-(trifluoromethyl)-1,3-thiazol-2-yl}-4,6-dimethoxypyrimidine-5-carboxamide]	inhibition in vivo at 10 mg/kg (FITC-challenged mice; 10 mg/kg bid po): 30 to 50%
50 to 100	COc1ncnc(OC)c1C(=O)Nc1nc(C(F)(F)F)c(CN2CC[C@@H](F)C2)s1 [Example 58, N-[5-{[(3R)-3-fluoropyrrolidin-1-yl]methyl}-4-(trifluoromethyl)-1,3-thiazol-2-yl]-4,6-dimethoxypyrimidine-5-carboxamide]	inhibition in vivo at 10 mg/kg (FITC-challenged mice; 10 mg/kg qd po): 30 to 50%
< 50	CCOC(=O)c1sc(NC(=O)c2c(OC)ncnc2OC)nc1C(C)(C)C [Example 193, ethyl 4-tert-butyl-2-{[(4,6-dimethoxypyrimidin-5-yl)carbonyl]amino}-1,3-thiazole-5-carboxylate]	–
< 50	COc1ncnc(OC)c1C(=O)Nc1nc(C(F)(F)F)c(-c2ccc(CN3CCOCC3)cc2)s1 [Example 198, 4,6-dimethoxy-N-{5-[4-(morpholin-4-ylmethyl)phenyl]-4-(trifluoromethyl)-1,3-thiazol-2-yl}pyrimidine-5-carboxamide]	–
50 to 100	COc1ncnc(OC)c1C(=O)Nc1nc(C(F)(F)F)c(-c2cccc(NS(=O)(=O)N(C)C)c2)s1 [Example 201, N-[5-{3-[(dimethylsulfamoyl)amino]phenyl}-4-(trifluoromethyl)-1,3-thiazol-2-yl]-4,6-dimethoxypyrimidine-5-carboxamide]	–
< 50	COc1ncnc(OC)c1C(=O)Nc1nc(C(F)(F)F)c(-c2cnc(C3CC3)nc2)s1 [Example 203, N-[5-(2-cyclopropylpyrimidin-5-yl)-4-(trifluoromethyl)-1,3-thiazol-2-yl]-4,6-dimethoxypyrimidine-5-carboxamide]	–
100 to 500	COc1ncnc(OC)c1C(=O)Nc1nc(C(F)(F)F)c(-c2cnc(C#N)c(OCC3COC3)c2)s1 [Example 205, N-(5-(6-cyano-5-(oxetan-3-yl-methoxy)pyridine-3-yl)-4-(trifluoromethyl)thiazol-2-yl)-4,6-dimethoxypyrimidine-5-carboxamide]	–
